The target of one test is T1, KDM5B (Homo sapiens, UniProt Q9UGL1).
T1 construct: Full length of KDM5B and KDM4C protein were purchased from Active Motif; purchased Active Motif 31832
In words: biochemical. As for the experimental part: (§1) KDM4C and KDM5B AlphaScreen Assay Material and Method
(§2) Compounds disclosed herein were (and can be) screened using the following assay.
Peptides used in all experiments were purchased from Anaspe. […] Final concentration of KDM5B and KDM4C used in the assay were 0.5 nM and 0.2 nM. Final concentration of peptides for 5B and 4C used in the assay were 3 nM.
(§3) 4 μL of KDM5B or KDM4C protein were added to 384-well OptiPlate by using multiflow, followed by 4 μl of either buffer or compound. Plates were sealed, spun down and incubated at RT for 15 min. 4 μl of biotinylated peptide was added to the plate, the plate was incubated at room temperature for 25 minutes (KDM5B) and 30 minutes (KDM4C) after sealed and spun down. Streptavidin donor beads and acceptor beads were diluted and mixed in the detection buffer with 7.5 mM EDTA, followed by adding 8 μl of acceptor and donor beads mix to the plate, before the plate was sealed and incubated at room temperature for 3 h or overnight at dark. The plate was read on Envision plate reader (PerkinElmer) using Alphascreen protocol. IC50s were calculated in GraphPad Prism 6.

The next test deals with T2, KDM4C (Homo sapiens, UniProt Q9H3R0).
T2 construct: Full length of KDM5B and KDM4C protein were purchased from Active Motif; purchased Active Motif 31858
T2 sequence (Q9H3R0 1-1056): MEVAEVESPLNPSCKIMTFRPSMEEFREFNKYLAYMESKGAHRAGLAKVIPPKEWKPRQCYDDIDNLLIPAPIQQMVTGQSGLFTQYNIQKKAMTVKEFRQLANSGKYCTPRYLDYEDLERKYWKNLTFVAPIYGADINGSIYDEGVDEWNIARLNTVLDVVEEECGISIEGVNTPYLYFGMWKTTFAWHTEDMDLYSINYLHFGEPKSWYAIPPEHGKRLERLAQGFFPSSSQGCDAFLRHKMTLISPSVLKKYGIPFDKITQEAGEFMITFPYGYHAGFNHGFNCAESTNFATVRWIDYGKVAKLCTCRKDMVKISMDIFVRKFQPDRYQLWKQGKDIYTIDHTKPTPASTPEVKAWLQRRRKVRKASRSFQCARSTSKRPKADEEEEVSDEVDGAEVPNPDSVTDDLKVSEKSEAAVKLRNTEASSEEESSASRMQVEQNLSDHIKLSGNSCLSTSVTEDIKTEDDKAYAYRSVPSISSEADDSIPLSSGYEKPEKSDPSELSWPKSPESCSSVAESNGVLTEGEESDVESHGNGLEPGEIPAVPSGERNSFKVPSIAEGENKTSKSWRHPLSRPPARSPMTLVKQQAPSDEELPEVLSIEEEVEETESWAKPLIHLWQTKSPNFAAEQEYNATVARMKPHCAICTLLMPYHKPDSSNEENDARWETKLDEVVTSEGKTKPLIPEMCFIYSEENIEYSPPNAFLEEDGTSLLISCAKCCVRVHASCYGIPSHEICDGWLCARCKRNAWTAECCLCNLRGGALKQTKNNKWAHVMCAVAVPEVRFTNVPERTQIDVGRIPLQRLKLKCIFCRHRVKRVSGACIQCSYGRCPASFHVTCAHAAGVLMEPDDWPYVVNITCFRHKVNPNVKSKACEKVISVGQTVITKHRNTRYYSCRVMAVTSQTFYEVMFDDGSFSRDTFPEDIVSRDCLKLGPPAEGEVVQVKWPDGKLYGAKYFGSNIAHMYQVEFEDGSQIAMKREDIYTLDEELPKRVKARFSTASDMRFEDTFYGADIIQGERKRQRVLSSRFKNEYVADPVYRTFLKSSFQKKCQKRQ
Kind of test: KDM4C AlphaScreen assay. The test is classed as biochemical. The conditions noted are these: AlphaScreen; full length KDM4C 0.2 nM; biotinylated H3K9Me3 peptide 3 nM; 30 minutes at room temperature. As for the experimental part: as §1, §2
Peptides used in all experiments were purchased from Anaspe. Full length of KDM5B and KDM4C protein were purchased from Active Motif: KDM5B (cat#31832) and KDM4C (Cat #31858). Final concentration of KDM5B and KDM4C used in the assay were 0.5 nM and 0.2 nM. Final concentration of peptides for 5B and 4C used in the assay were 3 nM.
as §3, with “AlphaScreen assays was conducted as following protocol: buffer used to make compound plate or DMSO is composed of 50 mM HEPES pH 7.4, 0.003% Tween-20; buffer used to dilute enzyme is composed of 50 mM HEPES pH 7.4, 0.003% Tween-20, 0.01% BSA, 500 μM TCEP; and buffer used to dilute the substrate is composed of 50 mM HEPES pH 7.4, 0.003% Tween-20, (NH4)2Fe(SO4)2 15 μM, alpha-ketoglutaric acid 4 μM and L-ascorbic acid 100 μM. 4 μL” for “4 μL”

Where [1] appears, read: AlphaScreen, full length KDM5B 0.5 nM, biotinylated H3K4Me3 peptide 3 nM, 25 minutes at room temperature, read-out: KDM5B (IC50).

Where two headings read alike, the source gives them in different places.

T1 sequence (Q9UGL1 whole entry): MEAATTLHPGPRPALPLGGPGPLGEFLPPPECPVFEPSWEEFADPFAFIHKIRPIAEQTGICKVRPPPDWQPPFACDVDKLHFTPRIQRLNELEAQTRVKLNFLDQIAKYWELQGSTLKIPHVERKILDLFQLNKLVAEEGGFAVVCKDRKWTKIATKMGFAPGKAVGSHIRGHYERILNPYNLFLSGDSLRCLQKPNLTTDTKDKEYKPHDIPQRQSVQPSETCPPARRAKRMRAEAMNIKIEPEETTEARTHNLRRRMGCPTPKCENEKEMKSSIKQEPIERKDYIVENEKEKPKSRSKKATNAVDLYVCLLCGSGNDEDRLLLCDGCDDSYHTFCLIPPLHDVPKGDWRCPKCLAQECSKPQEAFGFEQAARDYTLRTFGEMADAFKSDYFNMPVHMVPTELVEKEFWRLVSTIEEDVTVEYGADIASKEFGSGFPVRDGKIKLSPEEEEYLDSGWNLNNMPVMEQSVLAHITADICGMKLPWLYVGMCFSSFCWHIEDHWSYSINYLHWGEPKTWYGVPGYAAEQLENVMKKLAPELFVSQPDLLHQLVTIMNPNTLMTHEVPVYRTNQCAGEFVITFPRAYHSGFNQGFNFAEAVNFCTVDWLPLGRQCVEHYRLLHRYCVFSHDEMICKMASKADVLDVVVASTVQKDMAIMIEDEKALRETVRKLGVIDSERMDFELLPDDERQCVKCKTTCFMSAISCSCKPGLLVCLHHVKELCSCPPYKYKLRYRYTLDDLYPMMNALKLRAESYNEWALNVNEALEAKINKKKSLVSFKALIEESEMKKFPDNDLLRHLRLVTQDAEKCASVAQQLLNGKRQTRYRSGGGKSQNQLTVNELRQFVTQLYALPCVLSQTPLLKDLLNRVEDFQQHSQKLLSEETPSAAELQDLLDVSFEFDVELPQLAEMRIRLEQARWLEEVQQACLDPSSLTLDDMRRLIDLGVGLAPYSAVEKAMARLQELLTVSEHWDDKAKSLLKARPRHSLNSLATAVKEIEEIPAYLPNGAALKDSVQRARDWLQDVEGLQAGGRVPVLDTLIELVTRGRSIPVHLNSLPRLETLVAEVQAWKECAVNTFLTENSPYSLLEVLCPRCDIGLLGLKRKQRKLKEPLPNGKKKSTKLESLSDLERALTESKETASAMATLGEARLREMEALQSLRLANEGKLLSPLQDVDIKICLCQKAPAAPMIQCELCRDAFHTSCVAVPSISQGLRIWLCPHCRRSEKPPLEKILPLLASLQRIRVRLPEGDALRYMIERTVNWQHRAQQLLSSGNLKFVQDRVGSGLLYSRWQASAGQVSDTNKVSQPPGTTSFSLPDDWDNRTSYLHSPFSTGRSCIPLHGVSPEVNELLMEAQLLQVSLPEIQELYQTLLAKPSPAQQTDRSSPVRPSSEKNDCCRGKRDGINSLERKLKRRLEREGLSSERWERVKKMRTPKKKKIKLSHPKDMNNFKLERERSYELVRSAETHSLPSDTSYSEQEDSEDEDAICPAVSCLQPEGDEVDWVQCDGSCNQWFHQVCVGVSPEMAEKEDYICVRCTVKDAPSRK

Consider `CC(C)c1c(O)nc(-n2ccnc2)nc1-c1ccccc1` [Example 83, 2-(1H-Imidazol-1-yl)-6-phenyl-5-(propan-2-yl)-pyrimidin-4-ol], for which the values for the IC50 on KDM5B and against KDM4C were 89 nM and 2690 nM, respectively.

Turning to `Cc1nc(-n2cncc2CO)nc(O)c1C(C)C` [Example 24a, 2-[5-(hydroxymethyl)imidazol-1-yl]-5-isopropyl-6-methyl-pyrimidin-4-ol], the figures for the IC50 on KDM5B and on KDM4C were 45 nM and 499 nM, respectively.

With `CC(C)c1c(O)nc(-n2ccnc2)nc1-c1cnn(CC(=O)NCCN(CC(F)(F)F)C2CC2)c1` [Example 111, N-[2-[Cyclopropyl(2,2,2-trifluoroethyl)amino]ethyl}-2-{4-[6-hydroxy-2-(1H-imidazol-1-yl)-5-(propan-2-yl)pyrimidin-4-yl]-1H-pyrazol-1-yl}acetamide], the IC50 (in general, the concentration at which inhibition is half-maximal) at KDM5B was determined as 21 nM; against KDM4C it was 2120 nM.

For the compound `CC(C)c1c(O)nc(-n2ccnc2)nc1-c1cnn(CC(=O)N2CCCC(N)C2)c1` (stereo not shown) [Example 98, 1-(3-Aminopiperidin-1-yl)-2-{4-[6-hydroxy-2-(1H-imidazol-1-yl)-5-(propan-2-yl)pyrimidin-4-yl]-1H-pyrazol-1-yl}ethan-1-one], the IC50 on KDM5B turned out to be 8 nM; against KDM4C, 505 nM.

On to `CC(C)c1c(O)nc(-n2ccnc2)nc1-c1cnn(CC(=O)NCCN(C)CC(F)(F)F)c1` [Example 116, 2-{4-[6-Hydroxy-2-(1H-imidazol-1-yl)-5-(propan-2-yl)pyrimidin-4-yl]-1H-pyrazol-1-yl}-N-{2-[methyl-(2,2,2-trifluoroethyl)amino]-ethyl}acetamide], for which the figures for the IC50 on KDM5B and at KDM4C were 30 nM and 2250 nM, respectively.

For the compound `CC(C)c1c(O)nc(-n2ccnc2)nc1-c1cnn(CC(=O)N2CCCC(O)C2)c1` (stereo not shown) [Example 74, 2-{4-[6-Hydroxy-2-(1H-imidazol-1-yl)-5-(propan-2-yl)pyrimidin-4-yl]-1H-pyrazol-1-yl}-1-(3-hydroxy-piperidin-1-yl)ethan-1-one], the half-inhibitory concentration (IC50) at KDM5B (setting [1]) was 25 nM; against KDM4C it was 1750 nM.

Turning to `CC(C)c1c(O)nc(-n2ccnc2)nc1-c1cnn(CC(=O)N2CCCC(C#N)C2)c1` (stereo not shown) [Example 103, 1-(2-{4-[6-Hydroxy-2-(1H-imidazol-1-yl)-5-(propan-2-yl)pyrimidin-4-yl]-1H-pyrazol-1-yl}acetyl)-piperidine-3-carbonitrile], the results for the IC50 on KDM5B and at KDM4C were 15 nM and 909 nM, respectively.

In the case of `CC(C)c1c(O)nc(-n2ccnc2)nc1-c1cnn(CC(=O)NCCN(C)c2ccccc2)c1` [Example 102, 2-{4-[6-Hydroxy-2-(1H-imidazol-1-yl)-5-(propan-2-yl)pyrimidin-4-yl]-1H-pyrazol-1-yl}-N-{2-[methyl-(phenyl)amino]ethyl}-acetamide], the IC50 at KDM5B (setting [1]) is 14 nM; against KDM4C, 1400 nM.

For `CC(C)c1c(O)nc(-n2ccnc2)nc1-c1cnn(CC(=O)N2CCN(C)CC2)c1` [Example 99, 2-{4-[6-Hydroxy-2-(1H-imidazol-1-yl)-5-(propan-2-yl)pyrimidin-4-yl]-1H-pyrazol-1-yl}-1-(4-methyl-piperazin-1-yl)ethan-1-one], the IC50 was 10 nM on KDM5B (setting [1]) and 455 nM at KDM4C.

As to `CC(C)c1c(O)nc(-n2ccnc2)nc1-c1cnn(CC(=O)NCC(N)=O)c1` [Example 114, N-(Carbamoylmethyl)-2-{4-[6-hydroxy-2-(1H-imidazol-1-yl)-5-(propan-2-yl)pyrimidin-4-yl]-1H-pyrazol-1-yl}-acetamide], the IC50 was 26 nM against KDM5B and 2030 nM on KDM4C.

For the compound `CC(C)c1c(O)nc(-n2ccnc2)nc1-c1cnn(Cc2ccccc2)c1` [Example 63, 6-(1-Benzyl-1H-pyrazol-4-yl)-2-(1H-imidazol-1-yl)-5-(propan-2-yl)pyrimidin-4-ol], the IC50 against KDM5B is 18 nM; against KDM4C, 1540 nM.

For `CC(C)c1c(O)nc(-n2ccnc2)nc1-c1ccc(CO)cc1` [Example 58, 6-[4-(Hydroxymethyl)-phenyl]-2-(1H-imidazol-1-yl)-5-(propan-2-yl)pyrimidin-4-ol], the IC50 against KDM5B came out at 16 nM; against KDM4C it was 1220 nM.

As to `CC(C)c1c(O)nc(-n2ccnc2)nc1-c1cnn(-c2ccccc2)c1` [Example 71, 2-(1H-Imidazol-1-yl)-6-(1-phenyl-1H-pyrazol-4-yl)-5-(propan-2-yl)pyrimidin-4-ol], the IC50 at KDM5B was 24 nM; against KDM4C, 1560 nM.

With `CNC(=O)c1cccc(-c2nc(-n3ccnc3)nc(O)c2C(C)C)c1` [Example 57, 3-[6-Hydroxy-2-(1H-imidazol-1-yl)-5-(propan-2-yl)pyrimidin-4-yl]-N-methyl-benzamide], the IC50 was 16 nM against KDM5B and 2030 nM at KDM4C.

For the compound `CC(C)c1c(O)nc(-n2ccnc2)nc1-c1ccc(S(C)(=O)=O)cc1` [Example 69, 2-(1H-Imidazol-1-yl)-6-(4-methanesulfonylphenyl)-5-(propan-2-yl)pyrimidin-4-ol], the values for the IC50 against KDM5B and at KDM4C were 22 nM and 2060 nM, respectively.

`CC(C)c1c(O)nc(-n2ccnc2)nc1OCC(=O)O` [Example 15, 2-{[6-hydroxy-2-(1H-imidazol-1-yl)-5-(propan-2-yl)pyrimidin-4-yl]oxy}acetic acid]: the IC50 worked out at 651 nM against KDM5B and 10300 nM at KDM4C.

With `Cc1n[nH]cc1-c1nc(-n2ccnc2)nc(O)c1C(C)C` [Example 60, 2-(1H-Imidazol-1-yl)-6-(5-methyl-1H-pyrazol-4-yl)-5-(propan-2-yl)pyrimidin-4-ol], the IC50 on KDM5B (setting [1]) is 17 nM; on KDM4C, 1660 nM.

For `CC(C)c1c(O)nc(-n2ccnc2)nc1-c1cnn(CC(=O)NCCc2ccccn2)c1` [Example 105, 2-{4-[6-Hydroxy-2-(1H-imidazol-1-yl)-5-(propan-2-yl)pyrimidin-4-yl]-1H-pyrazol-1-yl}-N-[2-(pyridin-2-yl)ethyl]acetamide], the figures for the IC50 against KDM5B and against KDM4C were 17 nM and 1080 nM, respectively.

`Cc1nc(-n2ccnc2CO)nc(O)c1C(C)C` [Example 25, 2-[2-(hydroxymethyl)imidazol-1-yl]-5-isopropyl-6-methyl-pyrimidin-4-ol]: the results for the concentration for half-maximal inhibition (IC50) on KDM5B and against KDM4C were 48 nM and 613 nM, respectively.

In the case of `Cc1nc(-c2c[nH]cn2)nc(O)c1C(C)C` [Example 21, 2-(1H-imidazol-4-yl)-5-isopropyl-6-methylpyrimidin-4-ol], the IC50 at KDM5B was determined as 1930 nM; on KDM4C, 21100 nM.

The values above are taken from patent publication US20190135793A1, “HETEROCYCLIC INHIBITORS OF KDM5 FOR THE TREATMENT OF DISEASE” (Board of Regents, The University of Texas System, priority 2017, published 2019).
